Key:
Experiment in all cases: viability relative to DMSO control (fraction); higher = less drug effect (more viable cells)
Conditions in all cases: 48 h
Roscovitine = compound: CC[C@H](CO)Nc1nc(NCc2ccccc2)c2ncn(C(C)C)c2n1 [Roscovitine]
Summary of the method: (§1)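 Compounds were pre-plated at five concentrations, one well each, in 384-well plates, and primary mononuclear tumour cells were plated on them at 4 × 10^4 cells per well. The cells, fresh or cryopreserved, had been Ficoll-isolated from blood or bone marrow or taken from processed lymph node. After 48 h at 37 °C and 5% CO2 in RPMI-1640 with penicillin/streptomycin, L-glutamine and human serum, viability was read as CellTiter-Glo luminescence relative to the median of 16 inner DMSO wells.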

SGC 0946 = compound: CC(C)N(CCCNC(=O)Nc1ccc(C(C)(C)C)cc1)C[C@H]1O[C@@H](n2cc(Br)c3c(N)ncnc32)[C@H](O)[C@@H]1O [SGC 0946]
Summary of the method: as §1

Bendamustine = compound: Cn1c(CCCC(=O)O)nc2cc(N(CCCl)CCCl)ccc21 [Bendamustine]
Summary of the method: as §1

EPZ-6438 = compound: CCN(c1cc(-c2ccc(CN3CCOCC3)cc2)cc(C(=O)NCc2c(C)cc(C)[nH]c2=O)c1C)C1CCOCC1 [EPZ-6438]
Summary of the method: as §1

Midostaurin hydrate = compound: CO[C@@H]1[C@H](N(C)C(=O)c2ccccc2)C[C@H]2O[C@]1(C)n1c3ccccc3c3c4c(c5c6ccccc6n2c5c31)C(=O)NC4 [Midostaurin hydrate]
Summary of the method: as §1

Selinexor = compound: O=C(/C=C\n1cnc(-c2cc(C(F)(F)F)cc(C(F)(F)F)c2)n1)NNc1cnccn1 [Selinexor]
Summary of the method: as §1

Palbociclib = compound: CC(=O)c1c(C)c2cnc(Nc3ccc(N4CCNCC4)cn3)nc2n(C2CCCC2)c1=O [Palbociclib]
Summary of the method: as §1

Barasertib = compound: CCN(CCCOc1ccc2c(Nc3cc(CC(=O)Nc4cccc(F)c4)[nH]n3)ncnc2c1)CCOP(=O)(O)O [Barasertib]
Summary of the method: as §1

Everolimus = compound: CO[C@H]1C[C@@H]2CC[C@@H](C)[C@@](O)(O2)C(=O)C(=O)N2CCCC[C@H]2C(=O)O[C@H]([C@H](C)C[C@@H]2CC[C@@H](OCCO)[C@H](OC)C2)CC(=O)[C@H](C)/C=C(\C)[C@@H](O)[C@@H](OC)C(=O)[C@H](C)C[C@H](C)/C=C/C=C/C=C/1C [Everolimus]
Summary of the method: as §1

CPI-169 = compound: CCS(=O)(=O)N1CCC([C@@H](C)n2c(C)c(C(=O)NCc3c(OC)cc(C)[nH]c3=O)c3ccccc32)CC1 [CPI-169]
Summary of the method: as §1

Tofacitinib = compound: C[C@@H]1CCN(C(=O)CC#N)C[C@@H]1N(C)c1ncnc2[nH]ccc12 [Tofacitinib]
Summary of the method: as §1

Etoposide = compound: COc1cc([C@@H]2c3cc4c(cc3[C@@H](O[C@@H]3O[C@@H]5CO[C@@H](C)O[C@H]5[C@H](O)[C@H]3O)[C@H]3COC(=O)[C@H]23)OCO4)cc(OC)c1O [Etoposide]
Summary of the method: as §1

Entospletinib = compound: c1cn2cc(-c3ccc4cn[nH]c4c3)nc(Nc3ccc(N4CCOCC4)cc3)c2n1 [Entospletinib]
Summary of the method: as §1

## primary MCL patient cells (S053)
Roscovitine; 0.032 µM
  viability: 0.884
Roscovitine; 0.16 µM
  viability: 0.802
Roscovitine; 0.8 µM
  viability: 0.928
Roscovitine; 4 µM
  viability: 0.836
Roscovitine; 20 µM
  viability: 0.338
SGC 0946; 0.024 µM
  viability: 0.86
SGC 0946; 0.12 µM
  viability: 0.847
SGC 0946; 0.6 µM
  viability: 0.807
SGC 0946; 3 µM
  viability: 0.787
SGC 0946; 15 µM
  viability: 0.503
Bendamustine; 0.032 µM
  viability: 0.96
Bendamustine; 0.16 µM
  viability: 1.08
Bendamustine; 0.8 µM
  viability: 0.878
Bendamustine; 4 µM
  viability: 0.715
Bendamustine; 20 µM
  viability: 0.371
EPZ-6438; 0.024 µM
  viability: 0.988
EPZ-6438; 0.12 µM
  viability: 1.05
EPZ-6438; 0.6 µM
  viability: 1.07
EPZ-6438; 3 µM
  viability: 0.983
EPZ-6438; 15 µM
  viability: 0.826
Midostaurin hydrate; 0.024 µM
  viability: 0.943
Midostaurin hydrate; 0.12 µM
  viability: 0.965
Midostaurin hydrate; 0.6 µM
  viability: 0.908
Midostaurin hydrate; 3 µM
  viability: 0.731
Midostaurin hydrate; 15 µM
  viability: 0.341
Selinexor; 0.008 µM
  viability: 0.842
Selinexor; 0.04 µM
  viability: 0.896
Selinexor; 0.2 µM
  viability: 0.83
Selinexor; 1 µM
  viability: 0.628
Selinexor; 5 µM
  viability: 0.42
Palbociclib; 0.024 µM
  viability: 0.918
Palbociclib; 0.12 µM
  viability: 0.849
Palbociclib; 0.6 µM
  viability: 0.81
Palbociclib; 3 µM
  viability: 0.539
Palbociclib; 15 µM
  viability: 0.208
Barasertib; 0.0008 µM
  viability: 0.871
Barasertib; 0.004 µM
  viability: 0.876
Barasertib; 0.02 µM
  viability: 0.855
Barasertib; 0.1 µM
  viability: 0.904
Barasertib; 0.5 µM
  viability: 0.923
Everolimus; 0.0032 µM
  viability: 0.958
Everolimus; 0.016 µM
  viability: 0.928
Everolimus; 0.08 µM
  viability: 0.926
Everolimus; 0.4 µM
  viability: 0.959
Everolimus; 2 µM
  viability: 0.881
CPI-169; 0.024 µM
  viability: 0.814
CPI-169; 0.12 µM
  viability: 0.795
CPI-169; 0.6 µM
  viability: 0.877
CPI-169; 3 µM
  viability: 0.815
CPI-169; 15 µM
  viability: 0.727
Tofacitinib; 0.024 µM
  viability: 0.923
Tofacitinib; 0.12 µM
  viability: 0.947
Tofacitinib; 0.6 µM
  viability: 0.973
Tofacitinib; 3 µM
  viability: 1.17
Tofacitinib; 15 µM
  viability: 1.32
Etoposide; 0.032 µM
  viability: 0.995
Etoposide; 0.16 µM
  viability: 0.727
Etoposide; 0.8 µM
  viability: 0.587
Etoposide; 4 µM
  viability: 0.536
Etoposide; 20 µM
  viability: 0.357
Entospletinib; 0.024 µM
  viability: 1.04
Entospletinib; 0.12 µM
  viability: 1.01
Entospletinib; 0.6 µM
  viability: 0.825
Entospletinib; 3 µM
  viability: 1.03
Entospletinib; 15 µM
  viability: 0.912

## primary AML patient cells (S019)
Roscovitine; 0.032 µM
  viability: 1.08
Roscovitine; 0.16 µM
  viability: 1.07
Roscovitine; 0.8 µM
  viability: 1.16
Roscovitine; 4 µM
  viability: 0.986
Roscovitine; 20 µM
  viability: 0.864
SGC 0946; 0.024 µM
  viability: 1.04
SGC 0946; 0.12 µM
  viability: 1.04
SGC 0946; 0.6 µM
  viability: 0.918
SGC 0946; 3 µM
  viability: 1.01
SGC 0946; 15 µM
  viability: 0.652
Bendamustine; 0.032 µM
  viability: 1.01
Bendamustine; 0.16 µM
  viability: 1.12
Bendamustine; 0.8 µM
  viability: 1.01
Bendamustine; 4 µM
  viability: 0.991
Bendamustine; 20 µM
  viability: 0.937
EPZ-6438; 0.024 µM
  viability: 1.03
EPZ-6438; 0.12 µM
  viability: 1.06
EPZ-6438; 0.6 µM
  viability: 0.992
EPZ-6438; 3 µM
  viability: 1.04
EPZ-6438; 15 µM
  viability: 0.948
Midostaurin hydrate; 0.024 µM
  viability: 1.11
Midostaurin hydrate; 0.12 µM
  viability: 0.956
Midostaurin hydrate; 0.6 µM
  viability: 1.19
Midostaurin hydrate; 3 µM
  viability: 1.27
Midostaurin hydrate; 15 µM
  viability: 1.09
Selinexor; 0.008 µM
  viability: 0.888
Selinexor; 0.04 µM
  viability: 0.843
Selinexor; 0.2 µM
  viability: 0.785
Selinexor; 1 µM
  viability: 0.774
Selinexor; 5 µM
  viability: 0.681
Palbociclib; 0.024 µM
  viability: 0.997
Palbociclib; 0.12 µM
  viability: 0.837
Palbociclib; 0.6 µM
  viability: 0.925
Palbociclib; 3 µM
  viability: 0.635
Palbociclib; 15 µM
  viability: 0.286
Barasertib; 0.0008 µM
  viability: 0.853
Barasertib; 0.004 µM
  viability: 0.832
Barasertib; 0.02 µM
  viability: 1.04
Barasertib; 0.1 µM
  viability: 0.939
Barasertib; 0.5 µM
  viability: 1.07
Everolimus; 0.0032 µM
  viability: 0.907
Everolimus; 0.016 µM
  viability: 0.982
Everolimus; 0.08 µM
  viability: 0.893
Everolimus; 0.4 µM
  viability: 0.969
Everolimus; 2 µM
  viability: 0.973
CPI-169; 0.024 µM
  viability: 1.01
CPI-169; 0.12 µM
  viability: 1.03
CPI-169; 0.6 µM
  viability: 1.04
CPI-169; 3 µM
  viability: 1.07
CPI-169; 15 µM
  viability: 1.04
Tofacitinib; 0.024 µM
  viability: 1.1
Tofacitinib; 0.12 µM
  viability: 1.09
Tofacitinib; 0.6 µM
  viability: 1.16
Tofacitinib; 3 µM
  viability: 1.13
Tofacitinib; 15 µM
  viability: 1
Etoposide; 0.032 µM
  viability: 1.23
Etoposide; 0.16 µM
  viability: 0.9
Etoposide; 0.8 µM
  viability: 0.742
Etoposide; 4 µM
  viability: 0.876
Etoposide; 20 µM
  viability: 0.298
Entospletinib; 0.024 µM
  viability: 0.991
Entospletinib; 0.12 µM
  viability: 1.05
Entospletinib; 0.6 µM
  viability: 0.996
Entospletinib; 3 µM
  viability: 1.02
Entospletinib; 15 µM
  viability: 1.01
